Assay results published in ChEMBL document CHEMBL4004849, “Tetrazolylmethyl quinolines: Design, docking studies, synthesis, anticancer and antifungal analyses” (2017).
≈ marks a conversion by molar mass, not a printed value. Calls of active or inactive are those of the source. No cut-off for these calls is given here.

Columns and labels:
Type in all cases: functional
MOLT-4 = test: Growth inhibition of human MOLT4 cells at 10^-5 M incubated for 48 hrs by sulforhodamine B assay relative to control
KM12 = test: Growth inhibition of human KM12 cells at 10^-5 M incubated for 48 hrs by sulforhodamine B assay relative to control
NCI-H226 = test: Growth inhibition of human NCI-H226 cells at 10^-5 M incubated for 48 hrs by sulforhodamine B assay relative to control
Aspergillus fumigatus = test: Antifungal activity against Aspergillus fumigatus after 24 hrs by serial dilution method
SK-OV-3 = test: Growth inhibition of human SKOV3 cells at 10^-5 M incubated for 48 hrs by sulforhodamine B assay relative to control
U-251 = test: Growth inhibition of human U251 cells at 10^-5 M incubated for 48 hrs by sulforhodamine B assay relative to control
SNB-19 = test: Growth inhibition of human SNB19 cells at 10^-5 M incubated for 48 hrs by sulforhodamine B assay relative to control
UACC-257 = test: Growth inhibition of human UACC257 cells at 10^-5 M incubated for 48 hrs by sulforhodamine B assay relative to control
MDA-MB-435 = test: Growth inhibition of human MDA-MB-435 cells at 10^-5 M incubated for 48 hrs by sulforhodamine B assay relative to control
Candida albicans [1] = test: Antifungal activity against Candida albicans after 24 hrs by serial dilution method
SF-539 = test: Growth inhibition of human SF539 cells at 10^-5 M incubated for 48 hrs by sulforhodamine B assay relative to control
ACHN = test: Growth inhibition of human ACHN cells at 10^-5 M incubated for 48 hrs by sulforhodamine B assay relative to control
UO-31 = test: Growth inhibition of human UO31 cells at 10^-5 M incubated for 48 hrs by sulforhodamine B assay relative to control
LOX IMVI = test: Growth inhibition of human LOXIMVI cells at 10^-5 M incubated for 48 hrs by sulforhodamine B assay relative to control
Malme-3M = test: Growth inhibition of human MALME-3M cells at 10^-5 M incubated for 48 hrs by sulforhodamine B assay relative to control
SF-268 = test: Growth inhibition of human SF268 cells at 10^-5 M incubated for 48 hrs by sulforhodamine B assay relative to control
MDA-MB-231 = test: Growth inhibition of human MDA-MB-231/ATCC cells at 10^-5 M incubated for 48 hrs by sulforhodamine B assay relative to control
SNB-75 = test: Growth inhibition of human SNB75 cells at 10^-5 M incubated for 48 hrs by sulforhodamine B assay relative to control
TK-10 = test: Growth inhibition of human TK10 cells at 10^-5 M incubated for 48 hrs by sulforhodamine B assay relative to control
SF-295 = test: Growth inhibition of human SF295 cells at 10^-5 M incubated for 48 hrs by sulforhodamine B assay relative to control
NCI-H23 = test: Growth inhibition of human NCI-H23 cells at 10^-5 M incubated for 48 hrs by sulforhodamine B assay relative to control
NCI-H522 = test: Growth inhibition of human NCI-H522 cells at 10^-5 M incubated for 48 hrs by sulforhodamine B assay relative to control
COLO 205 = test: Growth inhibition of human COLO205 cells at 10^-5 M incubated for 48 hrs by sulforhodamine B assay relative to control
HCT-116 = test: Growth inhibition of human HCT116 cells at 10^-5 M incubated for 48 hrs by sulforhodamine B assay relative to control
HL-60(TB) = test: Growth inhibition of human HL-60(TB) cells at 10^-5 M incubated for 48 hrs by sulforhodamine B assay relative to control
HCC 2998 = test: Growth inhibition of human HCC2998 cells at 10^-5 M incubated for 48 hrs by sulforhodamine B assay relative to control
A549 = test: Growth inhibition of human A549/ATCC cells at 10^-5 M incubated for 48 hrs by sulforhodamine B assay relative to control
SW-620 = test: Growth inhibition of human SW620 cells at 10^-5 M incubated for 48 hrs by sulforhodamine B assay relative to control
SK-MEL-5 = test: Growth inhibition of human SK-MEL-5 cells at 10^-5 M incubated for 48 hrs by sulforhodamine B assay relative to control
CAKI-1 = test: Growth inhibition of human Caki1 cells at 10^-5 M incubated for 48 hrs by sulforhodamine B assay relative to control
UACC-62 = test: Growth inhibition of human UACC62 cells at 10^-5 M incubated for 48 hrs by sulforhodamine B assay relative to control
HCT-15 = test: Growth inhibition of human HCT15 cells at 10^-5 M incubated for 48 hrs by sulforhodamine B assay relative to control
IGROV-1 = test: Growth inhibition of human IGROV1 cells at 10^-5 M incubated for 48 hrs by sulforhodamine B assay relative to control
RXF 393 = test: Growth inhibition of human RXF393 cells at 10^-5 M incubated for 48 hrs by sulforhodamine B assay relative to control
OVCAR-8 = test: Growth inhibition of human OVCAR8 cells at 10^-5 M incubated for 48 hrs by sulforhodamine B assay relative to control
BT-549 = test: Growth inhibition of human BT549 cells at 10^-5 M incubated for 48 hrs by sulforhodamine B assay relative to control
M14 = test: Growth inhibition of human M14 cells at 10^-5 M incubated for 48 hrs by sulforhodamine B assay relative to control
SK-MEL-2 = test: Growth inhibition of human SK-MEL-2 cells at 10^-5 M incubated for 48 hrs by sulforhodamine B assay relative to control
Candida albicans [2] = test: Antifungal activity against Candida albicans at 100 ug/ml by disc diffusion method; conditions: read-out: IZ
SR = test: Growth inhibition of human SR cells at 10^-5 M incubated for 48 hrs by sulforhodamine B assay relative to control
T47D = test: Growth inhibition of human T47D cells at 10^-5 M incubated for 48 hrs by sulforhodamine B assay relative to control
EKVX = test: Growth inhibition of human EKVX cells at 10^-5 M incubated for 48 hrs by sulforhodamine B assay relative to control
SN12C = test: Growth inhibition of human SN12C cells at 10^-5 M incubated for 48 hrs by sulforhodamine B assay relative to control
NCI-H460 = test: Growth inhibition of human NCI-H460 cells at 10^-5 M incubated for 48 hrs by sulforhodamine B assay relative to control

Clc1nc2ccc(Br)cc2cc1Cn1nnc(Cc2ccccc2)n1
growth inhibition (GI) (MOLT-4): Active
growth inhibition (GI) (KM12): Active
growth inhibition (GI) (NCI-H226): Active
MIC (Aspergillus fumigatus): 10 µg/mL (≈ 24.1 µM)
growth inhibition (GI) (SK-OV-3): Active
growth inhibition (GI) (U-251): Active
growth inhibition (GI) (SNB-19): Active
growth inhibition (GI) (UACC-257): Active
growth inhibition (GI) (MDA-MB-435): Active
MIC (Candida albicans [1]): 10 µg/mL (≈ 24.1 µM)
growth inhibition (GI) (SF-539): Active
growth inhibition (GI) (ACHN): Active
growth inhibition (GI) (UO-31): Active
growth inhibition (GI) (LOX IMVI): Active
growth inhibition (GI) (Malme-3M): Active
growth inhibition (GI) (SF-268): Active
growth inhibition (GI) (MDA-MB-231): Active
growth inhibition (GI) (SNB-75): Active
growth inhibition (GI) (TK-10): Active
growth inhibition (GI) (SF-295): Active
growth inhibition (GI) (NCI-H23): Active
growth inhibition (GI) (NCI-H522): Active
growth inhibition (GI) (COLO 205): Active
growth inhibition (GI) (HCT-116): Active
growth inhibition (GI) (HL-60(TB)): Active
growth inhibition (GI) (HCC 2998): Active
growth inhibition (GI) (A549): Active
growth inhibition (GI) (SW-620): Active
growth inhibition (GI) (SK-MEL-5): Active
growth inhibition (GI) (CAKI-1): Active
growth inhibition (GI) (UACC-62): Active
growth inhibition (GI) (HCT-15): Active
growth inhibition (GI) (IGROV-1): Active
growth inhibition (GI) (RXF 393): Active
growth inhibition (GI) (OVCAR-8): Active
growth inhibition (GI) (BT-549): Active
growth inhibition (GI) (M14): Active
growth inhibition (GI) (SK-MEL-2): Active
zone of inhibition at 100 µg/mL (Candida albicans [2]): 10 mm
growth inhibition (GI) (SR): Active
growth inhibition (GI) (T47D): Active
growth inhibition (GI) (EKVX): Active
growth inhibition (GI) (SN12C): Active
growth inhibition (GI) (NCI-H460): Active

Fc1ccc2nc(Cl)c(Cn3nnnc3CSc3ccccc3)cc2c1
growth inhibition (GI) (MOLT-4): Active
growth inhibition (GI) (KM12): Active
growth inhibition (GI) (NCI-H226): Active
MIC (Aspergillus fumigatus): 2.5 µg/mL (≈ 6.48 µM)
growth inhibition (GI) (SK-OV-3): Active
growth inhibition (GI) (U-251): Active
growth inhibition (GI) (SNB-19): Active
growth inhibition (GI) (UACC-257): Active
growth inhibition (GI) (MDA-MB-435): Active
MIC (Candida albicans [1]): 50 µg/mL (≈ 130 µM)
growth inhibition (GI) (SF-539): Active
growth inhibition (GI) (ACHN): Active
growth inhibition (GI) (UO-31): Active
growth inhibition (GI) (LOX IMVI): Active
growth inhibition (GI) (Malme-3M): Active
growth inhibition (GI) (SF-268): Active
growth inhibition (GI) (MDA-MB-231): Active
growth inhibition (GI) (SNB-75): Active
growth inhibition (GI) (TK-10): Active
growth inhibition (GI) (SF-295): Active
growth inhibition (GI) (NCI-H23): Active
growth inhibition (GI) (NCI-H522): Active
growth inhibition (GI) (COLO 205): Active
growth inhibition (GI) (HCT-116): Active
growth inhibition (GI) (HL-60(TB)): Active
growth inhibition (GI) (HCC 2998): Active
growth inhibition (GI) (A549): Active
growth inhibition (GI) (SW-620): Active
growth inhibition (GI) (SK-MEL-5): Active
growth inhibition (GI) (CAKI-1): Active
growth inhibition (GI) (UACC-62): Active
growth inhibition (GI) (HCT-15): Active
growth inhibition (GI) (IGROV-1): Active
growth inhibition (GI) (RXF 393): Active
growth inhibition (GI) (OVCAR-8): Active
growth inhibition (GI) (BT-549): Active
growth inhibition (GI) (M14): Active
growth inhibition (GI) (SK-MEL-2): Active
zone of inhibition at 100 µg/mL (Candida albicans [2]): 13 mm
growth inhibition (GI) (SR): Active
growth inhibition (GI) (T47D): Active
growth inhibition (GI) (EKVX): Active
growth inhibition (GI) (SN12C): Active
growth inhibition (GI) (NCI-H460): Active

Clc1nc2ccc(Br)cc2cc1Cn1nnnc1CSc1ccccc1
growth inhibition (GI) (MOLT-4): Active
growth inhibition (GI) (KM12): Active
growth inhibition (GI) (NCI-H226): Active
MIC (Aspergillus fumigatus): 5 µg/mL (≈ 11.2 µM)
growth inhibition (GI) (SK-OV-3): Active
growth inhibition (GI) (U-251): Active
growth inhibition (GI) (SNB-19): Active
growth inhibition (GI) (UACC-257): Active
growth inhibition (GI) (MDA-MB-435): Active
MIC (Candida albicans [1]): 25 µg/mL (≈ 56 µM)
growth inhibition (GI) (SF-539): Active
growth inhibition (GI) (ACHN): Active
growth inhibition (GI) (UO-31): Active
growth inhibition (GI) (LOX IMVI): Active
growth inhibition (GI) (Malme-3M): Active
growth inhibition (GI) (SF-268): Active
growth inhibition (GI) (MDA-MB-231): Active
growth inhibition (GI) (SNB-75): Active
growth inhibition (GI) (TK-10): Active
growth inhibition (GI) (SF-295): Active
growth inhibition (GI) (NCI-H23): Active
growth inhibition (GI) (NCI-H522): Active
growth inhibition (GI) (COLO 205): Active
growth inhibition (GI) (HCT-116): Active
growth inhibition (GI) (HL-60(TB)): Active
growth inhibition (GI) (HCC 2998): Active
growth inhibition (GI) (A549): Active
growth inhibition (GI) (SW-620): Active
growth inhibition (GI) (SK-MEL-5): Active
growth inhibition (GI) (CAKI-1): Active
growth inhibition (GI) (UACC-62): Active
growth inhibition (GI) (HCT-15): Active
growth inhibition (GI) (IGROV-1): Active
growth inhibition (GI) (RXF 393): Active
growth inhibition (GI) (OVCAR-8): Active
growth inhibition (GI) (BT-549): Active
growth inhibition (GI) (M14): Active
growth inhibition (GI) (SK-MEL-2): Active
zone of inhibition at 100 µg/mL (Candida albicans [2]): 12 mm
growth inhibition (GI) (SR): Active
growth inhibition (GI) (T47D): Active
growth inhibition (GI) (EKVX): Active
growth inhibition (GI) (SN12C): Active
growth inhibition (GI) (NCI-H460): Active
